Columns and labels:
Escherichia coli = conditions: in vitro; cited from earlier work
Candida albicans = conditions: in vitro; cited from earlier work
Micrococcus luteus = conditions: in vitro; cited from earlier work
Bacillus subtilis = conditions: in vitro; cited from earlier work
Pseudomonas aeruginosa = conditions: in vitro; cited from earlier work
Staphylococcus aureus = conditions: in vitro; cited from earlier work
[1] = test system: chloroquine-resistant strain K1 of Plasmodium falciparum; conditions: in vitro; cited from earlier work
[2] = test system: L5178Y leukemia lymphoma mouse cells; conditions: cited from earlier work
[3] = test system: commensal microflora in the oral cavity; conditions: in vivo; cited from earlier work
certain microorganisms = assay: Comparative antimicrobial experiments, hydrogen peroxide alone vs enriched extract; type: cell-based; conditions: 0.05 wt % expressed as H2O2

Question: Which antimicrobial effect (Escherichia coli) does the source give for `COc1cc(O)c(-c2c(C)cc(O)c3c2C(=O)c2cccc(O)c2C3=O)c(O)c1C(C)=O` [knipholone] here?
Answer: ineffective

Question: And the antimicrobial effect (Candida albicans)?
Answer: ineffective

Question: What about the antimicrobial effect (Micrococcus luteus) of the same compound?
Answer: ineffective

Question: And the antimicrobial effect (Bacillus subtilis)?
Answer: ineffective

Question: And the antimicrobial effect (Pseudomonas aeruginosa)?
Answer: ineffective

Question: What about the antimicrobial effect (Staphylococcus aureus) of the same compound?
Answer: ineffective

Question: With `COc1cc(O)c(-c2c(C)cc(O)c3c2C(=O)c2ccc([C@H]4c5cccc(O)c5C(=O)c5c(O)cc(C)c(-c6c(O)cc(OC)c(C(C)=O)c6O)c54)c(O)c2C3=O)c(O)c1C(C)=O` [joziknipholone A] as the compound, how does the “effect against Plasmodium falciparum K1” value [1] read?
Answer: exhibited an effect

Question: What about the “effect against L5178Y cells” value [2] of the same compound?
Answer: moderate effect

Question: What does the source list for `OO` [hydrogen peroxide]?
Answer: effect on the commensal microflora in the oral cavity [3]: extremely harmful effect; antimicrobial effect (certain microorganisms): did not yield the antimicrobial properties

Question: Which “effect on the commensal microflora in the oral cavity” value [3] does the source give for `[H]/N=C(\N/C(=N/[H])NCCCCCCNC(=N)NC(=N)Nc1ccc(Cl)cc1)Nc1ccc(Cl)cc1` [chlorhexidine] here?
Answer: extremely harmful effect

Reference: US8486459B2 (Cremer Oleo GmbH & Co. KG, priority 2011, dated 2013)
